Assay results from US20110105436A1, “HETEROARYL COMPOUNDS, COMPOSITIONS, AND METHODS OF USE IN CANCER TREATMENT” (AUCKLAND UNISERVICES LIMITED, priority 2008, published 2011).

Experiments:
[1] = system: SN12C-VHL shRNA tumors; assay: Tumor growth of SN12C-VHL shRNA cells in scid mice; format: in vivo; conditions: VHL-deficient tumors, daily intraperitoneal treatment, FIG. 1E
Description: In vivo studies. 2−3×10^6 SN12C and SN12C-VHL shRNA cells were injected in male scid mice 4-6 weeks old. When tumor volume reached 150 mm^3, mice were randomized into vehicle control group or STF-62247 treatment group. Mice were treated every day with […] of STF-62247 intraperitoneally. Tumor growth was measured every 2-3 days after the drug treatment was started.
A. RCC4 and RCC4/VHL cells were labeled with EYFP and the effect of STF-62247 was monitored by fluorescence in each cell type separately. Cells are pseudocolored. B. Clonogenic assay in RCC4, RCC4/VHL, SN12C, SN12C-VHL shRNA cells in the presence of STF-62247 (0-30 μM). Each point of the cell survival is calculated by the average of three different experiments in triplicate as the percent of treated on untreated plate. The error bars represented the standard error of the mean (SEM). C. Upper Panel, clonogenic assay in RCC4 infected with HIF-1α or HIF-2α shRNA by retroviral infection in presence of drug in same conditions described above. Bottom panel, HIF-1α or HIF-2α protein expression evaluated by western blot in RCC4 cells with HIF-1α or HIF-2α shRNA. Tubulin is used as loading control. […] Tumor volume was measured every 2-3 days and data are represented in fold. Five tumors in each condition were analyzed where * p<0.05, **p<0.01 and ***p<0.005.

[2] = system: RCC4, RCC4/VHL, SN12C and SN12C-VHL shRNA cells; assay: Vacuole formation by light and time-lapse microscopy; format: cell-based
Description: A. Phase contrast pictures of VHL-deficient RCC4 and SN12C-VHL shRNA cells and VHL-positive cells RCC4 and SN12C after 20 hrs of 1.25 μM STF-62247. B. Immunostaining for LC3 following STF-62247 treatment at 1.25 μM for 20 hrs with or without 2 mM of 3-MA in RCC4 with and without VHL cells. After treatment, cells were fixed, permeabilized and processed for the detection of punctuate staining by indirect immunofluorescence. C. Autophagic vacuoles stained with monodansylcadaverine (MDC). After STF-62247 treatment in the same conditions, MDC was added for the last 10 minutes. Cells were fixed, washed with PBS and observed directly under microscope. D. Western blot for LC3 in RCC4, RCC4/VHL, SN12C, and SN12C-VHL shRNA cells after STF-62247 treatment with or without 3-MA. Nutrient starvation (EBSS) is used as positive control. […] Viability is measured by trypan blue exclusion assay and is represented by the average of three different experiments in duplicate as the percent of treated on untreated cells. […]
A. RCC4 and RCC4/VHL were treated with 1.25 μM of each 19 analogs for 20 hours and the presence of vacuoles was examined under light microscopy. […] Acidic vesicle organelles (AVO) measured by FACS analysis in cells treated with 1.25 μM of STF-62247 or with compounds 21, 15, 25, 47, and 53 and stained with acridine orange.

[3] = system: yeast deletion strains; assay: Killing curves of yeast deletion strains; format: cell-based, S. cerevisiae
From the text: Screen in yeast and killing curves. Genotypes of the parental yeast strain BY4743, construction of the homozygous diploid deletion strains, and construction of the homozygous diploid deletion pool have been described previously (Thomas, G. V., et al., Nat. Med. 2006, 12, 122). A mutant pool of 4728 nonessential homozygous diploid deletion strains was used. The parental diploid strain BY4743 was used as control in survival and complementation assays. […]
A. Killing curves for 8 deletion yeast strains. Wild-type, ALG5, APS1, CLA4, DRS2, OSH3, VPS20, VPS25, YPT31 were incubated with STF-62247 (0-100 μM) for 1 hour and colony formation was evaluated after two days. Each point of the survival is calculated by the average of two different experiments in triplicate and as the percent of treated on untreated plate. B. Quantitative real time PCR for CHMP6, PAK2, RAB11a, OSBP3 and ALG5 in RCC4 and RCC4/VHL. Histogram is calculated by the average of three different experiments in triplicate as the percent of RCC4/VHL on RCC4 cells. […] Colony formation was evaluated as described before. *p<0.05 represents the difference between VHL cells and VHL with siRNA in presence of 5 μM of STF-62247.

Cc1cccc(Nc2nc(-c3ccncc3)cs2)c1 [Compound 5, N-(3-Methylphenyl)-4-(4-pyridinyl)-1,3-thiazol-2-amine]
tumor growth [1]: significantly reduced tumor growth in VHL-deficient cells
vacuole formation ([2]; 1.25 μM, 20 hrs, FIG. 2A): accumulated intracytoplasmic vacuoles characteristic of cells undergoing autophagy
time of appearance of vacuoles after addition ([2]; time-lapse for 48 hours, RCC cells with and without VHL): 3 h
sensitivity of yeast deletion strain ([3]; ATG8 deletion strain, data not shown): did not exhibit sensitivity to STF-62247
toxicity in yeast deletion strains ([3]; CLA4, VPS20, ALG5, OSH3 and YPT31 deletion strains, 0-100 μM, 1 h): significant toxicity in response to STF-62247
